{
  "source": "patent US4795639A",
  "about": "“Potentiating formulations” (priority 1971, dated 1989)",
  "key": {"HMPPS and `synthetase`": {"system": "HMPPS and `synthetase`", "assay": "control tubes with source of both HMPPS and `synthetase`, labelled pAB, chromatographic analysis", "format": "biochemical, E. coli", "settings": "1 × 10^-5 M", "method": "(§1) Control tubes 10 to 12 include a source of both HMPPS and synthetase, unlabelled ATP, 0.1M MgCl2.6H2 O and labelled pAB.\nTwo control test tubes were prepared, each containing ATP (10 μl, 0.1M), MgCl2.6H2 O (10 μl, 0.1M), dithiothreitol (20 μl, 0.1M) tris buffer (20 μl, 0.4M, pH 8.3), pAB-C^14 (10 μl, 0.4 mM), and 20 μl of a solution containing HMPPS and `synthetase` of known activity. The test compound was added to the second of these two tubes up to a final concentration of 10^-5 M, and both tubes were made up with distilled water to 200 μl.\nAll seven tubes were then incubated for 30 minutes at 37° C., chilled on ice and then these, together with control tubes 10 to 12 from part (a), were chromatographically analysed as follows:\n100 μl of the contents of each of the tubes was spotted onto Whatman No. 3 MM chromatography paper (2×20 cm) at the `origin`, the run descending in a Sorenson buffer of potassium and sodium phosphates (0.1M, pH 7.0) for 10 to 15 cm."}, "Staphylococcus aureus": {"system": "Staphylococcus aureus", "assay": "M.I.C. in Wellcome Nutrient Agar, 18 hours at 37° C.", "format": "cell-based"}, "Escherichia coli CN 314": {"system": "Escherichia coli CN 314", "assay": "testing discs on standard nutrient medium", "format": "cell-based", "settings": "Escherichia coli, CN314; read-out: Size of zone in cm (×6 magnification)"}, "[1]": {"system": "Staphylococcus aureus CN 491", "assay": "testing discs on standard nutrient medium", "format": "cell-based", "settings": "Staphylococcus aureus, CN491; read-out: Size of zone in cm (×6 magnification)"}, "[2]": {"target": "T1, hydroxymethyldihydropteridine pyrophosphokinase (HMPPS) (Escherichia coli, UniProt P26281)", "T1 construct": "obtained from an extract of E. coli; endogenous in cells; host or cells: E. coli extract; HMPPS separated from synthetase on Sephadex G-100 (method of Richey and Brown 1969)", "T1 sequence (P26281 whole entry)": "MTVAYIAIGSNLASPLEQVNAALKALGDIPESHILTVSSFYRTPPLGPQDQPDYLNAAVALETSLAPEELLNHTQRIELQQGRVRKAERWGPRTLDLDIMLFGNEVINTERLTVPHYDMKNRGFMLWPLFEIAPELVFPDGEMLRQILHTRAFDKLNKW", "assay": "HMPPS assay: transfer of terminal phosphate of ATP-γ-P^32 to Pt", "format": "biochemical, E. coli", "text": "(a) An assay for HMPPS was developed in which the transfer of the terminal phosphate of ATP-γ-P^32 to Pt could be monitored and correlated with the amount of inhibition of HMPPS by the compound under test.\nThe compound under test was incorporated into various formulations comprising metabolites and enzymes contained in test tubes, as indicated in TABLE 1.\nII--a source of HMMP S, obtained from an extract of E. coli and separated from `synthetase` on Sephadex G-100, according to the method of Richey and Brown in J. Biol. Chem. 244, 1582-1592 (1969)\nas §1\nTubes 1 to 9 containing the amounts of components shown in the Table, were filled up to 200 μl with distilled water, incubated for 60 minutes at 37° C. and then chilled on ice. Dextrose (20 μl containing 72.1 mg/ml) and hexokinase (5 μl containing 2000 units/ml) were added to the solution, which was then allowed to stand at room temperature for 15 minutes. `Darco-G-60` (Registered Trade Mark) (10 mg) was added to each tube and the contents mixed periodically for 10 minutes. The charcoal was removed through a \"Millipore AP 250 2200\" (Registered Trade Mark) filter and the filter was washed with three 10 ml portions of cold water. The Charcoal and the filter were then radioactively counted.\nThe radioactive count from the contents of tubes 2 and 3 was taken as the maximum count, since these tubes contained no test compound and thus gave 0% enzyme inhibition. The percentage inhibition produced by the contents of the remaining tubes could then be calculated by relating their radioactive count to the maximum, as determined above."}, "[3]": {"system": "Pseudomonas aeruginosa CN 200", "assay": "testing discs on standard nutrient medium", "format": "cell-based", "settings": "Pseudomonas aeruginosa, CN200; read-out: Size of zone in cm (×6 magnification)"}, "E. tenella": {"system": "E. tenella", "assay": "coccidiosis screening test in chicks, E. tenella", "format": "in vivo, Eimeria tenella", "method": "\"Screening tests\" were performed to establish the effectiveness of the compounds of formula (I) both alone and in combination with a competitor and or an inhibitor and to determine the most useful levels of relative concentrations of each component in combatting or suppressing coccidiosis.\nGroups of Ranger cockerels, housed in small, heated cages with wire floors situated in enironmentally controlled isolation rooms, were infected orally with sporulated oocysts of the Eimeria spp such as E. tenella or E. acervulina. The appropriate test compound(s), (DMHP, sulphaquinoxaline (SQX) or diaveridine (DV) or any combination of these) were incorporated in a small quantity of specially formulated laboratory ration deficient in Vitamin K (`L.D.4 mash`), as a 1/10 pre-mix, which was then mixed into the diet on a horizontal roller drum mixed and administered to groups of chicks one day prior to infection, leaving some groups as untreated controls. Administration was continued for several days, for example about 8 or 9 days.\nThe amount of damage, marked by lesions in the caecal walls was investigated in those chicks that died during the course of the experiment, and in those sacrificed on the final day of administration, and compared with the untreated controls as a basis for the determination of therapeutic activity. In addition the mortality rate and the percentage weight gains in the various groups were assessed. A marked or definite effect of the administered drug could be recognised even when the mortality rates were similar or identical, since the increase in the weight gains and the reduction of the extension of lesions indicated by the lesion score, is characteristic of an improvement. […]\n4:1 sulphaquinoxaline/diaveridine mixtures at levels of 80/20, 60/15, 40/10 and 20/5 p.p.m. were administered alone and in combination with a wide range of low concentrations of DMHP to the birds.\nThe results of these screening tests are set forth in Table 4 showing the concentration of the various component compounds in parts per million of the bird's diet, the mortality from coccidiosis, the percentage weight gain, the lesion score the oocyst output, and the activity. The caecal lesion index is calculated using a score system where: […]\nIn addition a score of 4 is assigned to any bird that dies of coccidiosis during the experiment. [formula] In the activity column, +++, ++, +, ± and - relate respectively to very high, high, slight, doubtful and nil activity of the test drug against the Eimeria infection."}, "Proteus vulgaris CN 329": {"system": "Proteus vulgaris CN 329", "assay": "testing discs on standard nutrient medium", "format": "cell-based", "settings": "Proteus vulgaris, CN329; read-out: Size of zone in cm (×6 magnification)"}, "[4]": {"settings": "final concn. 0.93 × 10^-4 M, tubes 8, 9"}},
  "note": "Several values for one entry are separate records, joined by “and”; a condition that tells them apart may be missing. Identical values can stand only once.",
  "data": [
    {"smiles": "CC1(C)Nc2nc(N)nc(O)c2N=C1CO", "note": "[DMHP, 2-amino-4-hydroxy-6-hydroxymethyl-7,7-dimethyl-7,8-dihydropteridine]", "values": [
      {"measurement": "% Inhibn.", "setting": "HMPPS and `synthetase`; Table 1 control tube 12", "value": 79, "unit": "%"},
      {"measurement": "% Inhibn.", "setting": "HMPPS and `synthetase`; Table 2 control tube 7", "value": 83, "unit": "%"},
      {"measurement": "Sulphamethoxazole increase in Activity", "setting": "Staphylococcus aureus; Conc. of DMHP 3.1 μg/ml", "value": 1, "unit": "×"},
      {"measurement": "Trimethoprim in the Presence of × 20 sulphamethoxazol increase in Activity", "setting": "Staphylococcus aureus; Conc. of DMHP 3.1 μg/ml", "value": 10, "unit": "×"},
      {"measurement": "Trimethoprim increase in Activity", "setting": "Staphylococcus aureus; Conc. of DMHP 3.1 μg/ml", "value": 10, "unit": "×"},
      {"measurement": "Sulphamethoxazole increase in Activity", "setting": "Staphylococcus aureus; Conc. of DMHP 6.2 μg/ml", "value": 10, "unit": "×"},
      {"measurement": "Trimethoprim in the Presence of × 20 sulphamethoxazol increase in Activity", "setting": "Staphylococcus aureus; Conc. of DMHP 6.2 μg/ml", "value": 30, "unit": "×"},
      {"measurement": "Trimethoprim increase in Activity", "setting": "Staphylococcus aureus; Conc. of DMHP 6.2 μg/ml", "value": 30, "unit": "×"},
      {"measurement": "Sulphamethoxazole increase in Activity", "setting": "Staphylococcus aureus; Conc. of DMHP 25 μg/ml", "value": 100, "unit": "×"},
      {"measurement": "Trimethoprim in the Presence of × 20 sulphamethoxazol increase in Activity", "setting": "Staphylococcus aureus; Conc. of DMHP 25 μg/ml", "value": "> 300", "unit": "×"},
      {"measurement": "Trimethoprim increase in Activity", "setting": "Staphylococcus aureus; Conc. of DMHP 25 μg/ml", "value": 300, "unit": "×"},
      {"measurement": "zone of inhibition at 100 µg/disc", "setting": "Escherichia coli CN 314", "value": 0, "unit": "mm"},
      {"measurement": "zone of inhibition at 100 µg/disc", "setting": "[1]", "value": 0, "unit": "mm"},
      {"measurement": "IC50", "setting": "[2]", "value": "2 to 4", "unit": "µM"},
      {"measurement": "% Inhibn.", "setting": "[2]; [4]", "value": 95, "unit": "%"},
      {"measurement": "inhibition at 93 µM", "setting": "[2]; [4]", "value": 98, "unit": "%"},
      {"measurement": "% Inhibn.", "setting": "[2]; final concn. 1 × 10^-5 M, tubes 6, 7", "value": "87% and 55%"},
      {"measurement": "inhibition at 2.5e-10 µM", "setting": "[2]; read-out: % Inhibn., test compound final concn., tubes 4, 5", "value": 44, "unit": "%"},
      {"measurement": "% Inhibn.", "setting": "[2]; test compound final concn., tubes 4, 5", "value": 33, "unit": "%"},
      {"measurement": "zone of inhibition at 100 µg/disc", "setting": "[3]", "value": 220, "unit": "mm"},
      {"measurement": "Mortality from Coccidiosis", "setting": "E. tenella; Expt. 1, 200,000 oocysts, SQX/DV/DMHP p.p.m in diet: -/-/250, -/-/90, -/-/30, -/-/10, 30/30/-, 30/30/250, 30/30/90, 30/30/30, 30/30/10", "value": "1/5 and 2/5 and 3/5"},
      {"measurement": "Mortality from Coccidiosis", "setting": "E. tenella; Expt. 4, 100,000 oocysts, p.p.m SQX/DV/DMHP: b374 10/-/-, b375 -/20/-, b376 -/-/10, b377 10/-/10, b378 -/20/10, b379 10/20/-, b381 10/20/10, b382 20/-/-, b383 -/40/-, b384 -/-/20, b385 20/-/20, b386 -/40/20, b387 20/40/-, b389 20/40/20", "value": "8/10 and 6/10"},
      {"measurement": "Mortality from Coccidiossis", "setting": "E. tenella; Expt. 5, 100,000 oocysts, SQX/DV p.p.m with DMHP 40, 20, 10, 5 p.p.m: b409-412 20/20, b413-416 26.7/13.3, b417-420 30/10, b421-424 32/8, b425-428 33.4/6.6, no DMHP: b429 20/20, b430 26.7/13.3, b431 30/10, b432 32/8, b433 33.4/6.6, DMHP alone b434-437 40, 20, 10, 5", "value": "19/20 and 18/20 and 20/20"},
      {"measurement": "activity alone against infection with E. tenella", "setting": "E. tenella; all levels of concentration tested", "value": "inactive"},
      {"measurement": "potentiation of the activity of diaveridine/sulphaquinoxaline mixtures", "setting": "E. tenella; in many cases by as much as", "value": "3 to 4", "unit": "fold"},
      {"measurement": "zone of inhibition at 100 µg/disc", "setting": "Proteus vulgaris CN 329", "value": 0, "unit": "mm"}
    ]}
  ]
}
